Data as given in paper PMC9921564, “Novel Indole-Containing Hybrids Derived from Millepachine: Synthesis, Biological Evaluation and Antitumor Mechanism Study” (Molecules, 2023).

Key:
[1] = tested on: MCF-10A (normal human mammary epithelial cells); assay: CCK-8 cytotoxicity, MCF-10A normal cells; type: cell-based
Description: A549 (non-small-cell-lung cancer cell line), Caski (human epithelial cervical cancer cell line), HepG2 (human liver carcinoma cell line), MCF-7 (human breast carcinoma cell line), C42B (human prostate cancer line C42B), L-02 (human normal hepatocytes), RWPE-1 (human prostate epithelial cells) and MCF-10A (human normal mammary epithelial cells) were obtained from National Collection of Authenticated Cell Cultures (Shanghai, China). A549/CDDP (A549 cell line resistant to cisplatin), C42B/ENZR (C42b cell line resistant to Enzalutamide), MCF-7/DOX (MCF-7 cell line resistant to doxorubicin), A2780/TAX (human ovarian cancer cell line A2780 resistant to taxol) and HCT-8/VCR (human ileocecum carcinoma cell lines HCT-8 resistant to vincristine) were kindly provided by Professor Junjian Wang and Professor Xingshu Li at Sun Yat-Sen University, China. […]
After 24 h, the medium containing different concentrations of tested compounds were added for another 48 h. […] The optical density was recorded with a microplate reader at 570 nm (Thermo Scientific, Varioskan LUX). All the experiments were repeated independently at least three times and the IC50 values were calculated […]

A549 cells = assay: MMP detection by JC-1; type: cell-based, human; details: A549, 10, 20 and 50 nM, 12 h
Description: The intrinsic mitochondrial pathway is one of the most well-studied mechanisms relevant to cell apoptosis. ROS accumulation and mitochondrial membrane potential (MMP) alteration play crucial roles in this pathway. In this study, a fluorescent dye including DCFH-DA and JC-1 was used to monitor the intracellular ROS and MMP, respectively.
Figure 5 ROS accumulation and MMP alteration induced by compound 14b. (A,B) The intracellular ROS detection by DCFH-DA after A549 cells treated with compound 14b at indicated concentrations for 12 h. (C,D) The detection of MMP monitored by JC-1 dye after A549 cells treated with compound 14b at the concentrations of 10, 20 and 50 nM for 12 h. […]
samples were fixed in ice-cold 70% ethanol overnight and removed with ice-cold PBS for three times. […] After the incubation, the prepared cell samples were immediately analyzed. Almost 10,000 events were detected by flow cytometry (Beckman Coulter, CytoFlex LX). The data regarding the number of cells in different phases of the cell cycle were or apoptotic cells were analyzed by […]
Caspase-3 activity was measured according to the manufacturer ’s instructions using a GreenNuc™ Caspase-3 assay kit for live cells (Beyotime, China). […] After incubation, the fluorescence intensity (excitation wavelength:
485 nm, emission wavelength: 515 nm) was recorded using a multifunctional microplate reader (Thermo Scientific, Varioskan LUX). […]

## COc1ccc(C(=O)c2ccc3c(ccn3C)c2)c2c1C=CC(C)(C)O2 [compound 14b, (5-methoxy-2,2-dimethyl-2H-chromen-8-yl)(1-methyl-1H-indol-5-yl)methanone]
[1]; Homo sapiens, MCF-10A, 48 h, CCK-8, normal cells, read-out: IC50, Mean ± SE, MCF-10A
  IC50: 6.26 ± 0.311 µM
[1]; IC50 MCF-10A / IC50 MCF-7
  Selectivity Ratio: 231.7
A549 cells
  MMP, ratio of JC-1 aggregates to monomers: remarkably decreased
